Results: US12258327B2, “5-membered heteroaryl-containing aminopyridine compounds as EGFR inhibitors” (YUHAN CORPORATION, priority 2021, dated 2025)
Where two headings read alike, the source gives them in different places.

Experiments:
[1] = target: EGFR L858R/T790M/C797S (Homo sapiens, UniProt P00533, C797S/L858R/T790M); assay: Biochemical EGFR kinase assay (Lance Ultra TR-FRET), triple mutant L858R/T790M/C797S
Procedure, shortened: (§1)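 Step 1: compound in kinase buffer, 0.003–10 μM. Step 2: kinase reaction 1 h at room temperature. Step 4: TR-FRET read at 615/665 nm; IC50 calculated.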

[2] = target: EGFR wildtype (WT) (Homo sapiens, UniProt P00533); assay: Biochemical EGFR kinase assay (Lance Ultra TR-FRET), wildtype
Sequence of EGFR wildtype (WT) (P00533 25-1210): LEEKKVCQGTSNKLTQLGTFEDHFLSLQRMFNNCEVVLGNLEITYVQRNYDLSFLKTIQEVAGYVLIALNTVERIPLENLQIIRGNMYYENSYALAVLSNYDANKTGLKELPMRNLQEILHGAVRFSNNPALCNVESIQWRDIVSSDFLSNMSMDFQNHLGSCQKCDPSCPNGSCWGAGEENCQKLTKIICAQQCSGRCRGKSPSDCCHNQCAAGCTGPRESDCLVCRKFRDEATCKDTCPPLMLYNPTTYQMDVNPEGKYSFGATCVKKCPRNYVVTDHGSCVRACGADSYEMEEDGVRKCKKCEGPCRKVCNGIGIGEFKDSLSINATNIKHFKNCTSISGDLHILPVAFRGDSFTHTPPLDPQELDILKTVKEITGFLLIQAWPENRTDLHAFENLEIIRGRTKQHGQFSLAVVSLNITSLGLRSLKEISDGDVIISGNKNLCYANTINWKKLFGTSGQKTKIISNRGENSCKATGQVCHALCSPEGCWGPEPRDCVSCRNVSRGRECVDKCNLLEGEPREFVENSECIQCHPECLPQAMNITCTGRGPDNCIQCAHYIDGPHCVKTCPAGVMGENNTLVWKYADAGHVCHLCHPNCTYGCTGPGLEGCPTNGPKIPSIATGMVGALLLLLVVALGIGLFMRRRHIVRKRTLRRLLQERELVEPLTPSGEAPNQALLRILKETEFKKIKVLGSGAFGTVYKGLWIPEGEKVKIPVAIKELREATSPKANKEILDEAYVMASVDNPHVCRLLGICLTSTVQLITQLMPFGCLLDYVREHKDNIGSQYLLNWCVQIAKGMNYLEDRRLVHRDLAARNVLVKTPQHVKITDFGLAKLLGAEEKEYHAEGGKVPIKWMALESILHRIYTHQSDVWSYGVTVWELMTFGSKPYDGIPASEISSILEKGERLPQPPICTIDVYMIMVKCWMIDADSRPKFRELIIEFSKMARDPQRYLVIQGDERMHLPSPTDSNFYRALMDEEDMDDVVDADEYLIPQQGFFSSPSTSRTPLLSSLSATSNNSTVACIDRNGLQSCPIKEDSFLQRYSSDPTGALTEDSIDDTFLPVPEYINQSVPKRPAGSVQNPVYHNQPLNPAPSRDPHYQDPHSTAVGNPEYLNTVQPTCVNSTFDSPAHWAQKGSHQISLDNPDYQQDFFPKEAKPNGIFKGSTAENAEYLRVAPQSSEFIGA
Procedure, shortened: as §1

[3] = target: EGFR del19/T790M/C797S (Homo sapiens, UniProt P00533, C797S/DEL746-750/T790M); assay: Biochemical EGFR kinase assay (Lance Ultra TR-FRET), triple mutant del19/T790M/C797S
Sequence of EGFR del19/T790M/C797S (P00533 with tags, fused parts or gaps DEL746-750/T790M/C797S): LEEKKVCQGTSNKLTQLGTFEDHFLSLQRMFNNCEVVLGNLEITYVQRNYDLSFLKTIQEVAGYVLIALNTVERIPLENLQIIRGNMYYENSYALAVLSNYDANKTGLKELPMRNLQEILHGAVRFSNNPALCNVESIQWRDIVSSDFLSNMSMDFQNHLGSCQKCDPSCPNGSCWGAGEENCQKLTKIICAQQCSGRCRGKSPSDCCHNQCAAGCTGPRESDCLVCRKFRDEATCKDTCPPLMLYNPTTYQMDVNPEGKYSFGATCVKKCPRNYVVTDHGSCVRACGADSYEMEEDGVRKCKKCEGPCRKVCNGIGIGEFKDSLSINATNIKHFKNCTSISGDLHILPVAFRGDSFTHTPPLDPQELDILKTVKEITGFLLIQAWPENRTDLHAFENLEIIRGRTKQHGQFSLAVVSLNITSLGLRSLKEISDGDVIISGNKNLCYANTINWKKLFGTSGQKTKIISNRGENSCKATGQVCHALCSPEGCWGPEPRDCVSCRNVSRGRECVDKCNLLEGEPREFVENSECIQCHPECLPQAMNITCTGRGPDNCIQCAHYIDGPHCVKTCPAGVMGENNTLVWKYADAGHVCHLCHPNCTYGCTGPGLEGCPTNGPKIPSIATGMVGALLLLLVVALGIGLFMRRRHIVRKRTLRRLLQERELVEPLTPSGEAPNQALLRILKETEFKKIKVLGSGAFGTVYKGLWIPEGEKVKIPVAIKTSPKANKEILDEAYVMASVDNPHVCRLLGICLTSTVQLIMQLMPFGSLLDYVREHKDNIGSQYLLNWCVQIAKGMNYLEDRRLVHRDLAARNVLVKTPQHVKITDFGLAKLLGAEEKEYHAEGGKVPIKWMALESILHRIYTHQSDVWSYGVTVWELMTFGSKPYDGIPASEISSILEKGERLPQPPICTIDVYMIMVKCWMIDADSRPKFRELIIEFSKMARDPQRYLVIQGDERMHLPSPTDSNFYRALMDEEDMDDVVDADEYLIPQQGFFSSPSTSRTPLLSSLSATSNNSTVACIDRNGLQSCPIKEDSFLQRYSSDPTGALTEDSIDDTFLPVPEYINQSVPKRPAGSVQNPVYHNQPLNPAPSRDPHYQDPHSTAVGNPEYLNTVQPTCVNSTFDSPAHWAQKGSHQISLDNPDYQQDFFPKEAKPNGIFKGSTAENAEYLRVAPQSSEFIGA
Procedure, shortened: as §1

[4] = target: EGFR L858R/C797S (Homo sapiens, UniProt P00533, C797S/L858R); assay: Biochemical EGFR kinase assay (Lance Ultra TR-FRET), double mutant L858R/C797S
Sequence of EGFR L858R/C797S (P00533 25-1210 C797S/L858R): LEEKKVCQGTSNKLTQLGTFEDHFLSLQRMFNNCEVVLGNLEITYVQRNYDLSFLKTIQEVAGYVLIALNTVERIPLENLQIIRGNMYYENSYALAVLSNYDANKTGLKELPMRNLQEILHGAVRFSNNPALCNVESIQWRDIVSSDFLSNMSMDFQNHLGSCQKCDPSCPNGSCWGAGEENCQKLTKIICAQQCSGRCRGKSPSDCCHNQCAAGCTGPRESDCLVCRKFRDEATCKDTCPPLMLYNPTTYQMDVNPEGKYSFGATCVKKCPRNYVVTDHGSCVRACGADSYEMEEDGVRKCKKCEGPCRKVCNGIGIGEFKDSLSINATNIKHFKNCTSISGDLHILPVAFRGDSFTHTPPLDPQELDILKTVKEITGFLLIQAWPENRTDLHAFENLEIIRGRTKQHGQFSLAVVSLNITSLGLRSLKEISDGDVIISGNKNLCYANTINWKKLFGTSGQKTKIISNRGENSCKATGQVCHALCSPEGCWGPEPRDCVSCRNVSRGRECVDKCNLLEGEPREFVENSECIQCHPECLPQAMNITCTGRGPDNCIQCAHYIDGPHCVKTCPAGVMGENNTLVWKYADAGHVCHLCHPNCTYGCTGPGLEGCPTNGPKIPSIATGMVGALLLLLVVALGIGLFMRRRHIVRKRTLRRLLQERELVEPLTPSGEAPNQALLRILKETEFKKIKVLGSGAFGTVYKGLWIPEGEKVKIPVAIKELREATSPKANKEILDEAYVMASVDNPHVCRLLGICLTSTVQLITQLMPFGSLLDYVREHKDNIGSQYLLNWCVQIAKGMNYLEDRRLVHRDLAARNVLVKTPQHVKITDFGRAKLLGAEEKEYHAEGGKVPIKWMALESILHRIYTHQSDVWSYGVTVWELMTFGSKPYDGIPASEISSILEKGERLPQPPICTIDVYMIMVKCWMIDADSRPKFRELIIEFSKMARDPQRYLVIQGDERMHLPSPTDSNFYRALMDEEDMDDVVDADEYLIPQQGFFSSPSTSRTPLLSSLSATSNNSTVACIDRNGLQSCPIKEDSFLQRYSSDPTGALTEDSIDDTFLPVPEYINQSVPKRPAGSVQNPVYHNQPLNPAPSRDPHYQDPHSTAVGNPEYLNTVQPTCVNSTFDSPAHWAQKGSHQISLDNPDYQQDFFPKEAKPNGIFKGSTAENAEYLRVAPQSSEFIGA
Procedure, shortened: as §1

[5] = target: EGFR del19/C797S (Homo sapiens, UniProt P00533, C797S/DEL746-750); assay: Biochemical EGFR kinase assay (Lance Ultra TR-FRET), double mutant del19/C797S
Procedure, shortened: as §1

[6] = IC50 L858R/T790M/C797S (nM) 100 μM ATP, 100 μM ATP
[7] = Km ATP, read-out: IC50 L858R/T790M/C797S (nM) Km ATP
[8] = IC50 WT (nM) 100 μM ATP, 100 μM ATP
[9] = Km ATP, read-out: IC50 WT (nM) Km ATP
[10] = IC50 del19/T790M/C797S (nM) 100 μM ATP, 100 μM ATP
[11] = Km ATP, read-out: IC50 del19/T790M/C797S (nM) Km ATP
[12] = IC50 L858R/C797S (nM) 100 μM ATP, 100 μM ATP
[13] = Km ATP, read-out: IC50 L858R/C797S (nM) Km ATP
[14] = IC50 del19/C797S (nM) 100 μM ATP, 100 μM ATP
[15] = Km ATP, read-out: IC50 del19/C797S (nM) Km ATP
[16] = Km ATP, read-out: IC50 L858R/T790M/C797S, Km ATP
[17] = Km ATP, read-out: IC50 WT, Km ATP
[18] = Km ATP, read-out: IC50 del19/T790M/C797S, Km ATP
[19] = Km ATP, read-out: IC50 L858R/C797S, Km ATP
[20] = Km ATP, read-out: IC50 del19/C797S, Km ATP

Sequence of EGFR L858R/T790M/C797S (P00533 25-1210 T790M/C797S/L858R): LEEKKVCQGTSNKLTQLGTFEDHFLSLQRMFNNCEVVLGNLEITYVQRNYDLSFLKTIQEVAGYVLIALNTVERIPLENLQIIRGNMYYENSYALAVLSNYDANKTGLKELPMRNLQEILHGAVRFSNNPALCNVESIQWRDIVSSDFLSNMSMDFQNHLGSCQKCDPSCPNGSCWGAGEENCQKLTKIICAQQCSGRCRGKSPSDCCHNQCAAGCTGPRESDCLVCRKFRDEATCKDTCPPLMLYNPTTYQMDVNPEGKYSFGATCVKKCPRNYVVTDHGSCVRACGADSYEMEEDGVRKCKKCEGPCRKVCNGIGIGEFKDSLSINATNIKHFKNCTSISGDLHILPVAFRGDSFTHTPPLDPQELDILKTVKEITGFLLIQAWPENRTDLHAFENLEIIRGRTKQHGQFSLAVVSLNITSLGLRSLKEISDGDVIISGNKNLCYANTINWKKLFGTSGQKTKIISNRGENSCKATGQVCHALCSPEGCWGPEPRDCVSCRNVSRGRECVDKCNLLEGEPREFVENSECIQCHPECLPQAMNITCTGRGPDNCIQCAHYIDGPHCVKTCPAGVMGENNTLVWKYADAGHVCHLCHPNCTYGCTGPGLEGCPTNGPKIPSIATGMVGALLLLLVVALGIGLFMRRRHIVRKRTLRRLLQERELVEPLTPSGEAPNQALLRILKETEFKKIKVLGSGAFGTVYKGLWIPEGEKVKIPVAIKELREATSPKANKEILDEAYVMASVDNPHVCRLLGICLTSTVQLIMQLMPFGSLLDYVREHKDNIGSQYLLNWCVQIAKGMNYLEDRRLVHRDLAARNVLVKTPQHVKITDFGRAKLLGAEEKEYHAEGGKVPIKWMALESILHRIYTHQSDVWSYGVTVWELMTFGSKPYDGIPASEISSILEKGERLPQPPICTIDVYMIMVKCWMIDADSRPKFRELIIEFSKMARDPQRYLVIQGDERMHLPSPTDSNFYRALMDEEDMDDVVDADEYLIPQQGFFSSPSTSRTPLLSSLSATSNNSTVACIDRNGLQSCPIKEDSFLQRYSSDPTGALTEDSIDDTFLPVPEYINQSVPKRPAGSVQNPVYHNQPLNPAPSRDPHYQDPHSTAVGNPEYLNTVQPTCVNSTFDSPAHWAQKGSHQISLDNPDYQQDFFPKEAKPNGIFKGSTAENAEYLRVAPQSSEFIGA

Cn1ccc(-c2cnc(Nc3ccnc(-c4cnn(S(=O)(=O)C5CC5)c4)n3)cc2N[C@H]2CC[C@](O)(CO)CC2)n1 [Example 221, (1s,4s)-4-((2-((2-(1-(Cyclopropylsulfonyl)-1H-pyrazol-4-yl)pyrimidin-4-yl)amino)-5-(1-methyl-1H-pyrazol-3-yl)pyridin-4-yl)amino)-1-(hydroxymethyl)cyclohexan-1-ol]
IC50 [1, 6]: 0.2 nM
IC50 [1, 7]: 0.2 nM
IC50 [2, 8]: 1510 nM
IC50 [2, 9]: 4.9 nM
IC50 [3, 10]: 0.3 nM
IC50 [3, 11]: 0.3 nM
IC50 [4, 12]: 4.9 nM
IC50 [4, 13]: 1 nM
IC50 [5, 14]: 0.5 nM
IC50 [5, 15]: 0.4 nM

C[C@]1(O)CC[C@@H](Nc2cc(Nc3ccnc(-c4cnn(S(=O)(=O)C5CC5)c4)n3)nnc2-c2ccn(C(F)F)n2)CC1 [Example 372, (1s,4s)-4-((6-((2-(1-(Cyclopropylsulfonyl)-1H-pyrazol-4-yl)pyrimidin-4-yl)amino)-3-(1-(difluoromethyl)-1H-pyrazol-3-yl)pyridazin-4-yl)amino)-1-methylcyclohexan-1-ol]
IC50 [1, 16]: 0.2 nM
IC50 [2, 17]: 108 nM
IC50 [3, 18]: 0.6 nM
IC50 [4, 19]: 3.7 nM
IC50 [5, 20]: 6.9 nM

CC(C)(CO)CNc1cc(Nc2ccnc(-c3cnn(S(=O)(=O)C4CC4)c3)n2)ncc1-c1csc(C(C)(C)O)n1 [Example 90, 3-((2-((2-(1-(Cyclopropylsulfonyl)-1H-pyrazol-4-yl)pyrimidin-4-yl)amino)-5-(2-(2-hydroxypropan-2-yl)thiazol-4-yl)pyridin-4-yl)amino)-2,2-dimethylpropan-1-ol]
IC50 [1, 6]: 7.1 nM
IC50 [2, 8]: > 10000 nM
IC50 [3, 10]: 2.6 nM
IC50 [4, 12]: 1490 nM
IC50 [5, 14]: 367 nM

CC1(O)CCC(Nc2cc(Nc3ccnc(N4CC(CO)C(F)(F)C4)n3)ncc2-c2ccn(C(F)F)n2)CC1 (stereo not drawn) [Example 346, (1s,4s)-4-((2-((2-(3,3-Difluoro-4-(hydroxymethyl)pyrrolidin-1-yl)pyrimidin-4-yl)amino)-5-(1-(difluoromethyl)-1H-pyrazol-3-yl)pyridin-4-yl)amino)-1-methylcyclohexan-1-ol]
IC50 ([1]; IC50 L858R/T790M/C797S, 100 μM ATP): 3.7 nM
IC50 ([2]; IC50 WT, 100 μM ATP): > 10000 nM
IC50 [2, 17]: 335 nM
IC50 ([3]; IC50 del19/T790M/C797S, 100 μM ATP): 6.3 nM
IC50 ([4]; IC50 L858R/C797S, 100 μM ATP): 409 nM
IC50 ([5]; IC50 del19/C797S, 100 μM ATP): 124 nM

COCC#Cc1nccc(Nc2cc(NC3CCC(C)(O)CC3)c(-c3ccn(C(F)F)n3)cn2)n1 (stereo not drawn) [Example 104, (1s,4s)-4-((5-(1-(Difluoromethyl)-1H-pyrazol-3-yl)-2-((2-(3-methoxyprop-1-yn-1-yl)pyrimidin-4-yl)amino)pyridin-4-yl)amino)-1-methylcyclohexan-1-ol]
IC50 [1, 7]: 5.9 nM
IC50 [2, 9]: 984 nM
IC50 [3, 11]: 4.3 nM
IC50 [4, 13]: 15.6 nM
IC50 [5, 15]: 949 nM

CC(O)C(C)(C)Nc1cc(Nc2ccnc(-c3cnn(S(=O)(=O)C4CC4)c3)n2)ncc1-c1ccn(C)n1 (stereo not drawn) [Example 95, 3-((2-((2-(1-(Cyclopropylsulfonyl)-1H-pyrazol-4-yl)pyrimidin-4-yl)amino)-5-(1-methyl-1H-pyrazol-3-yl)pyridin-4-yl)amino)-3-methylbutan-2-ol]
IC50 [1, 6]: 1.9 nM
IC50 [2, 8]: > 10000 nM
IC50 [3, 10]: 1.3 nM
IC50 [4, 12]: 45.2 nM
IC50 [5, 14]: 57.7 nM

C[C@]1(O)CC[C@@H](Nc2nc(Nc3ccnc(-c4cnn(S(=O)(=O)C5CC5)c4)c3)ncc2-c2ccn(CCC(F)(F)F)n2)CC1 [Example 359, (1s,4s)-4-((2-((2-(1-(Cyclopropylsulfonyl)-1H-pyrazol-4-yl)pyridin-4-yl)amino)-5-(1-(3,3,3-trifluoropropyl)-1H-pyrazol-3-yl)pyrimidin-4-yl)amino)-1-methylcyclohexan-1-ol]
IC50 [1, 16]: 1.6 nM
IC50 [2, 17]: 208 nM
IC50 [3, 18]: 0.6 nM
IC50 [4, 19]: 18.3 nM
IC50 [5, 20]: 15.4 nM

CN(C)CCNC1CCC(Nc2cc(Nc3ccnc(-c4cnn(S(=O)(=O)C5CC5)c4)n3)ncc2-c2csc(C(F)(F)F)n2)CC1 (stereo not drawn) [Example 98, N^2-(2-(1-(Cyclopropylsulfonyl)-1H-pyrazol-4-yl)pyrimidin-4-yl)-N^4-(4-((2-(dimethylamino)ethyl)amino)cyclohexyl)-5-(2-(trifluoromethyl)thiazol-4-yl)pyridine-2,4-diamine]
IC50 [1, 6]: 2.7 nM
IC50 [2, 8]: 1410 nM
IC50 [3, 10]: 0.7 nM
IC50 [4, 12]: 7.7 nM
IC50 [5, 14]: 1.9 nM

Cn1ccc(-c2cnc(Nc3ccnc(-c4cnn(S(=O)(=O)C5CC5)c4)n3)cc2NC[C@H]2C[C@H](CO)C2)n1 [Example 223, ((1r,3r)-3-(((2-((2-(1-(Cyclopropylsulfonyl)-1H-pyrazol-4-yl)pyrimidin-4-yl)amino)-5-(1-methyl-1H-pyrazol-3-yl)pyridin-4-yl)amino)methyl)cyclobutyl)methanol]
IC50 [1, 6]: 0.2 nM
IC50 [1, 7]: 0.1 nM
IC50 [2, 8]: 3020 nM
IC50 [2, 9]: 3.2 nM
IC50 [3, 10]: 0.2 nM
IC50 [3, 11]: 0.2 nM
IC50 [4, 12]: 5.9 nM
IC50 [4, 13]: 0.7 nM
IC50 [5, 14]: 0.6 nM
IC50 [5, 15]: 0.3 nM

OC1CCN(Nc2cc(Nc3ccnc(-c4cnn(CC(F)F)c4)n3)ncc2-c2ccn(C(F)F)n2)CC1 [Example 162, 1-((2-((2-(1-(2,2-Difluoroethyl)-1H-pyrazol-4-yl)pyrimidin-4-yl)amino)-5-(1-(difluoromethyl)-1H-pyrazol-3-yl)pyridin-4-yl)amino)piperidin-4-ol]
IC50 [1, 7]: 0.2 nM
IC50 [2, 9]: 271 nM
IC50 [3, 11]: 0.9 nM
IC50 [4, 13]: 275 nM
IC50 [5, 15]: 33.4 nM

O=S(=O)(C1CC1)n1cc(-c2nccc(Nc3cc(OC4CCC(O)C4)c(-c4ccn(C(F)F)n4)cn3)n2)cn1 (stereo not drawn) [Example 67, 3-((2-((2-(1-(Cyclopropylsulfonyl)-1H-pyrazol-4-yl)pyrimidin-4-yl)amino)-5-(1-(difluoromethyl)-1H-pyrazol-3-yl)pyridin-4-yl)oxy)cyclopentan-1-ol]
IC50 [1, 6]: 15.7 nM
IC50 [1, 7]: 3.8 nM
IC50 [2, 8]: > 10000 nM
IC50 [2, 9]: 336 nM
IC50 [3, 10]: 3.6 nM
IC50 [3, 11]: 3.4 nM
IC50 [4, 12]: 596 nM
IC50 [4, 13]: 23.5 nM
IC50 [5, 14]: 111 nM
IC50 [5, 15]: 111 nM

COCn1cc(-c2nccc(Nc3cc(N[C@H]4CC[C@@](C)(O)CC4)c(-c4ccn(C(F)F)n4)cn3)n2)cn1 [Example 310, (1s,4s)-4-((5-(1-(Difluoromethyl)-1H-pyrazol-3-yl)-2-((2-(1-(methoxymethyl)-1H-pyrazol-4-yl)pyrimidin-4-yl)amino)pyridin-4-yl)amino)-1-methylcyclohexan-1-ol]
IC50 [1, 6]: 19 nM
IC50 [2, 8]: > 10000 nM
IC50 [3, 10]: 4 nM
IC50 [4, 12]: 237 nM
IC50 [5, 14]: 36.8 nM
IC50 [5, 15]: 0.1 nM

O=S(=O)(C1CC1)n1cc(-c2nccc(Nc3cc(NC4CCCC(NCCF)C4)c(-c4ccn(C(F)F)n4)cn3)n2)cn1 (stereo not drawn) [Example 194, N^2-(2-(1-(Cyclopropylsulfonyl)-1H-pyrazol-4-yl)pyrimidin-4-yl)-5-(1-(difluoromethyl)-1H-pyrazol-3-yl)-N^4-(3-((2-fluoroethyl)amino)cyclohexyl)pyridine-2,4-diamine]
IC50 [1, 6]: 0.6 nM
IC50 [1, 7]: 0.1 nM
IC50 [2, 8]: > 10000 nM
IC50 [2, 9]: 19.9 nM
IC50 [3, 10]: 0.2 nM
IC50 [3, 11]: 0.3 nM
IC50 [4, 12]: 32.1 nM
IC50 [4, 13]: 5.8 nM
IC50 [5, 14]: 7.5 nM
IC50 [5, 15]: 4.4 nM
